The structures appear in SMILES notation.

For the experiment, the target named is T1, Human Polθ polymerase domain (aa1820-2590) (Homo sapiens, UniProt O75417).
T1 construct: Human Polθ polymerase domain (aa1820-2590) was expressed in E. coli; made in house; host or cells: E. coli
T1 sequence (O75417 1820-2590): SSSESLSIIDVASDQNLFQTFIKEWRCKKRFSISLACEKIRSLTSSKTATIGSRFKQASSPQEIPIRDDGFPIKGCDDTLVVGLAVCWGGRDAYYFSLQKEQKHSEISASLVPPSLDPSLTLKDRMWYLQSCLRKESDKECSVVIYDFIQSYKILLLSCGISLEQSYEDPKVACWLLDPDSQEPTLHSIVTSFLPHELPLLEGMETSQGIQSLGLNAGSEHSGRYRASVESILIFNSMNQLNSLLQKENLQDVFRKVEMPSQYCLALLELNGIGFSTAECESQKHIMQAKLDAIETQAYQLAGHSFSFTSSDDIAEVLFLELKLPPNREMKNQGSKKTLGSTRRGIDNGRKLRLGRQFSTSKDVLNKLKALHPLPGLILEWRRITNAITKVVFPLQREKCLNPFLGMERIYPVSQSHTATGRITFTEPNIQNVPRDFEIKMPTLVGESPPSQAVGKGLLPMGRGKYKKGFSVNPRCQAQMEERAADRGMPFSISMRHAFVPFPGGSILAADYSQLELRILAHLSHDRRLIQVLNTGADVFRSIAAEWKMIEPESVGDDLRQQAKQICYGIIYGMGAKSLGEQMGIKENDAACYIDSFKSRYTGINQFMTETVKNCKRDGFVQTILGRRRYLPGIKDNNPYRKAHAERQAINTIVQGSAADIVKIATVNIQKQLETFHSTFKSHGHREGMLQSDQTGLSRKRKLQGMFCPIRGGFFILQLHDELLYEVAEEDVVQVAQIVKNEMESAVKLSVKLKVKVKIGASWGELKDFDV
In words: Polθ Polymerase Domain Kinact/KI Assay (PicoGreen). To be noted: 0.8 nM Polθ, 100 nM DNA substrate, kobs vs [I] fit for 2-step covalent inhibitor. It is filed as biochemical. The method, boiled down: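 Time-dependent inhibition was followed by quenching reactions with EDTA at points up to 60 min, then staining product DNA with PicoGreen fluorescence. Reactions held 0.8 nM E. coli-expressed Polθ, 100 nM primed DNA substrate and […] at pH 7.5, 1% DMSO. kobs versus inhibitor concentration gave Kinact and KI.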
Compound `C=CC(=O)N1Cc2nc(CN3C[C@H]4CC(=O)N(c5cc(C(F)(F)F)cc(C)n5)[C@@H]4C(=O)N(C)c4cccc(C)c43)ccc2[C@H]1CC#N` (racemic) [Example 319a, 2-((S/R)-6-acryloyl-2-(((3aR,11aS)-6,10-dimethyl-1-(6-meth-yl-4-(trifluorometh-yl)pyridin-2-yl)-2,11-dioxo-1,2,3,3a,4,10,11,11a-octahydro-5H-benzo [b]pyrrolo[2,3-][1,4]diazocin-5-yl)meth-yl)-6,7-dihydro-5H-pyrrolo[3,4-b]pyr-idin-5-yl)acetonitrile] showed a Kinact/Kl of 2.17e+06 M⁻¹ s⁻¹.

For the compound `C=CC(=O)N1Cc2nc(CN3C[C@H]4CC(=O)N(c5cc(C(F)(F)F)cc(C)n5)[C@@H]4C(=O)N(C)c4cccc(C)c43)ccc2[C@H]1CC#N` (racemic) [Example 319b, 2-((R/S)-6-acryloyl-2-(((3aR,11aS)-6,10-dimethyl-1-(6-meth-yl-4-(trifluorometh-yl)pyridin-2-yl)-2,11-dioxo-1,2,3,3a, 4,10,11,11a-octa-hydro-5H-benzo[b]pyrrolo[2,3-f][1,4]diazocin-5-yl)meth-yl)-6,7-dihydro-5H-pyrrolo[3,4-b]pyr-idin-5-yl)acetonitrile], the Kinact/Kl worked out at 1.66e+06 M⁻¹ s⁻¹.

`C=CC(=O)N1Cc2ncc(CN3C[C@H]4CC(=O)N(c5cc(C(F)(F)F)cc(C)n5)[C@@H]4C(=O)N(C)c4cccc(C)c43)cc2[C@H]1CC#N` (racemic) [Example 320a, 2-((R/S)-6-acryloyl-3-(((3aR,11aS)-6,10-dimethyl-1-(6-meth-yl-4-(trifluorometh-yl)pyridin-2-yl)-2,11-dioxo-1,2,3,3a, 4,10,11,11a-octa-hydro-5H-benzo[b]pyrrolo[2,3-f][1,4]diazocin-5-yl)meth-yl)-6,7-dihydro-5H-pyrrolo[3,4-b]pyr-idin-5-yl)acetonitrile] yielded a Kinact/Kl of 1.37e+06 M⁻¹ s⁻¹.

`C=CC(=O)N1Cc2ncc(CN3C[C@H]4CC(=O)N(c5cc(C(F)(F)F)cc(C)n5)[C@@H]4C(=O)N(C)c4cccc(C)c43)cc2[C@@H]1CC#N` (racemic) [Example 320b, 2-((S/R)-6-acryloyl-3-(((3aR,11aS)-6,10-dimethyl-1-(6-meth-yl-4-(trifluorometh-yl)pyridin-2-yl)-2,11-dioxo-1,2,3,3a, 4, 10,11,11a-octa-hydro-5H-benzo[b]pyrrolo[2,3-f][1,4]diazocin-5-yl)meth-yl)-6,7-dihydro-5H-pyrrolo[3,4-b]pyr-idin-5-yl)acetonitrile]: the Kinact/Kl worked out at 2.48e+06 M⁻¹ s⁻¹.

As to `C=CC(=O)N1Cc2cc(CN3C[C@H]4CC(=O)N(c5cc(C(F)(F)F)cc(C)n5)[C@@H]4C(=O)N(C)c4cccc(C)c43)cnc2[C@@H]1CC#N` (racemic) [Example 321a, 2-((S/R)-6-acryloyl-3-(((3aR,11aS)-6,10-dimethyl-1-(6-meth-yl-4-(trifluorometh-yl)pyridin-2-yl)-2,11-dioxo-1,2,3,3a, 4,10,11,11a-octa-hydro-5H-benzo[b]pyrrolo[2,3-f][1,4]diazocin-5-yl)meth-yl)-6,7-dihydro-5H-pyrrolo[3,4-b]pyr-idin-7-yl)acetonitrile], the Kinact/Kl is 1.57e+06 M⁻¹ s⁻¹.

`C=CC(=O)N1Cc2cc(CN3C[C@H]4CC(=O)N(c5cc(C(F)(F)F)cc(C)n5)[C@@H]4C(=O)N(C)c4cccc(C)c43)cnc2[C@H]1CC#N` (racemic) [Example 321b, 2-((R/S)-6-acryloyl-3-(((3aR,11aS)-6,10-dimethyl-1-(6-meth-yl-4-(trifluorometh-yl)pyridin-2-yl)-2,11-dioxo-1,2,3,3a, 4,10,11,11a-octa-hydro-5H-benzo[b]pyrrolo[2,3-f][1,4]diazocin-5-yl)meth-yl)-6,7-dihydro-5H-pyrrolo[3,4-b]pyr-idin-7-yl)acetonitrile] displayed a Kinact/Kl of 690000 M⁻¹ s⁻¹.

The values above are taken from patent US20250230165A1, “HETEROCYCLIC COMPOUNDS FOR USE IN THE TREATMENT OF CANCER” (ARTIOS PHARMA LIMITED, priority 2021, published 2025).
